In the CheMixHub ionic liquid set:
± gives the uncertainty stated by the source.

Experiment: xn = mol fraction of the nth substance listed

CCCCCC[n+]1ccn(C)c1.O=[N+]([O-])[O-] + CCCC(C)O
100 kPa
Conditions	viscosity [mPa·s]
293.15 K, x1 = 0.2408	23.7 ± 1.2
293.15 K, x1 = 0.7401	258 ± 14
293.15 K, x1 = 0.8508	417 ± 24
298.15 K, x1 = 0.1609	10.16 ± 0.53
303.15 K, x1 = 0.0814	4.67 ± 0.24
303.15 K, x1 = 0.7401	113.5 ± 6
308.15 K, x1 = 0.7401	75.3 ± 3.9
313.15 K, x1 = 0.0814	2.69 ± 0.14
323.15 K, x1 = 0.0814	1.71 ± 0.09
323.15 K, x1 = 0.6509	16.03 ± 0.83
323.15 K, x1 = 1	110.9 ± 5.8

CCCC[n+]1ccn(C)c1.O=[N+]([O-])[O-] + CCCC(C)O
100 kPa
Conditions	viscosity [mPa·s]
293.15 K, x1 = 0.8501	83 ± 17
303.15 K, x1 = 0.3499	6.6 ± 1.3
318.15 K, x1 = 0.4399	5.9 ± 1.2
323.15 K, x1 = 0.5604	7.1 ± 1.4
323.15 K, x1 = 0.6505	9.7 ± 1.9

CCCC[N+](CCCC)(CCCC)CCCC.O=S(=O)([O-])O + CCCCCCCCCO
101.3 kPa, x1 = 0.2
Conditions	electrical conductivity [S/m]	viscosity [mPa·s]
293.15 K	0.00273 ± 6.8e-05	164.6 ± 4.9
298.15 K	0.00375 ± 8.8e-05	–
303.15 K	0.00499 ± 0.00011	–
308.15 K	0.00648 ± 0.00015	84.2 ± 2.1
313.15 K	0.0082 ± 0.00018	65.8 ± 1.6

CCCCCC[n+]1ccn(C)c1.O=[N+]([O-])[O-] + CCCCCCCO
Conditions	viscosity [mPa·s]
293.15 K, 100 kPa, x1 = 0.4392	100.5 ± 8.2

CCCC[n+]1ccn(C)c1.O=[N+]([O-])[O-] + CCCCCCCO
viscosity [mPa·s], 100 kPa
Conditions	293.15 K	303.15 K	313.15 K	323.15 K
x1 = 0.0824	7.76 ± 0.62	5.5 ± 0.44	3.98 ± 0.32	2.87 ± 0.23
x1 = 0.1625	8.67 ± 0.7	6.03 ± 0.48	4.34 ± 0.35	3.03 ± 0.24
x1 = 0.2317	9.68 ± 0.78	6.61 ± 0.53	4.7 ± 0.38	3.23 ± 0.26
x1 = 0.3446	11.46 ± 0.92	7.53 ± 0.6	5.37 ± 0.43	3.67 ± 0.29
x1 = 0.4317	13.2 ± 1.1	8.53 ± 0.69	5.96 ± 0.48	4.12 ± 0.33
x1 = 0.5762	18.7 ± 1.5	11.56 ± 0.93	7.74 ± 0.62	5.01 ± 0.4
x1 = 0.6416	24.3 ± 2	14.4 ± 1.2	9.06 ± 0.73	5.69 ± 0.46
x1 = 0.7334	41.3 ± 3.4	22.6 ± 1.8	14 ± 1.1	8.49 ± 0.69
x1 = 0.8418	82.4 ± 6.7	43 ± 3.5	26.4 ± 2.2	15.8 ± 1.3
x1 = 0.9327	146 ± 12	77.8 ± 6.4	47.8 ± 3.9	28.1 ± 2.3
x1 = 1	224 ± 18	125 ± 10	75.1 ± 6.1	45.2 ± 3.7

CCCC[n+]1ccn(C)c1.O=[N+]([O-])[O-] + CCCCCCO
viscosity [mPa·s], 100 kPa
Conditions	293.15 K	303.15 K	313.15 K	323.15 K
x1 = 0.0811	6.41 ± 0.51	4.47 ± 0.36	3.24 ± 0.26	2.45 ± 0.2
x1 = 0.1741	7.98 ± 0.64	5.21 ± 0.42	3.72 ± 0.3	2.75 ± 0.22
x1 = 0.2418	9.59 ± 0.77	6.02 ± 0.48	4.21 ± 0.34	3.02 ± 0.24
x1 = 0.3587	13.3 ± 1.1	8.24 ± 0.66	5.33 ± 0.43	3.63 ± 0.29
x1 = 0.4426	17.5 ± 1.4	10.69 ± 0.86	6.48 ± 0.52	4.22 ± 0.34
x1 = 0.5532	26.6 ± 2.1	15.4 ± 1.2	8.94 ± 0.72	5.49 ± 0.44
x1 = 0.6538	40.2 ± 3.2	23 ± 1.9	12.8 ± 1	7.56 ± 0.61
x1 = 0.7414	60.7 ± 4.9	33.8 ± 2.7	18.9 ± 1.5	10.83 ± 0.88
x1 = 0.8519	103.2 ± 8.4	58.4 ± 4.7	33.4 ± 2.7	18.5 ± 1.5
x1 = 0.9367	162 ± 13	90.8 ± 7.4	53.2 ± 4.3	30.6 ± 2.5
x1 = 1	224 ± 18	125 ± 10	75.1 ± 6.1	45.2 ± 3.7

CCOS(=O)(=O)[O-].CC[n+]1ccn(C)c1 + CCCCCCO
100 kPa
Conditions	viscosity [mPa·s]
288.15 K, x1 = 1	155.5 ± 2.7
293.15 K, x1 = 0.1016	7.885 ± 0.086
303.15 K, x1 = 0.5956	27.85 ± 0.3
323.15 K, x1 = 0.4975	11.85 ± 0.13

CCCC[n+]1ccn(C)c1.O=[N+]([O-])[O-] + CCCCCO
100 kPa
Conditions	viscosity [mPa·s]
293.15 K, x1 = 0.4363	18.2 ± 1.5
293.15 K, x1 = 0.5668	29.3 ± 2.4
293.15 K, x1 = 0.7481	61 ± 4.9
313.15 K, x1 = 0.6481	18.9 ± 1.5
313.15 K, x1 = 0.8416	38.7 ± 3.1
313.15 K, x1 = 0.9415	57.5 ± 4.7
323.15 K, x1 = 0.0824	2.22 ± 0.18
323.15 K, x1 = 0.9415	35.5 ± 2.9

CCCC[n+]1ccn(C)c1.O=[N+]([O-])[O-] + CCCCO
101 kPa
Conditions	viscosity [mPa·s]
283.15 K, x2 = 0.456	47.92 ± 0.82
288.15 K, x2 = 0.26	94.8 ± 3
288.15 K, x2 = 0.565	23.86 ± 0.35
293.15 K, x2 = 0.565	19.88 ± 0.29
293.15 K, x2 = 0.848	5.88 ± 0.08
298.15 K, x2 = 0.129	97 ± 3.1
298.15 K, x2 = 0.456	25.72 ± 0.38
298.15 K, x2 = 0.565	16.79 ± 0.24
303.15 K, x2 = 0.26	43.31 ± 0.69
303.15 K, x2 = 0.565	14.34 ± 0.2
308.15 K, x2 = 0.129	56.32 ± 0.79
308.15 K, x2 = 0.26	35.31 ± 0.55
308.15 K, x2 = 0.65	8.91 ± 0.12
308.15 K, x2 = 0.753	5.59 ± 0.07
313.15 K, x2 = 0.361	21.55 ± 0.31
313.15 K, x2 = 0.565	10.76 ± 0.15
313.15 K, x2 = 0.65	7.8 ± 0.1
313.15 K, x2 = 0.753	4.91 ± 0.06
318.15 K, x2 = 0.26	24.53 ± 0.37
318.15 K, x2 = 0.565	9.44 ± 0.13
323.15 K, x2 = 0.361	15.85 ± 0.23
323.15 K, x2 = 0.753	3.92 ± 0.05
333.15 K, x2 = 0.361	12.03 ± 0.17
333.15 K, x2 = 0.565	6.56 ± 0.09

CC[n+]1ccn(CCOC)c1.N#C[S-] + CCCCO
viscosity [mPa·s], 100 kPa
Conditions	x1 = 0.1	x1 = 0.1999	x1 = 0.2996	x1 = 0.4001	x1 = 0.4996	x1 = 0.5995	x1 = 0.6979	x1 = 0.7993	x1 = 0.9	x1 = 1
288.15 K	4.85 ± 0.27	6.76 ± 0.38	9.62 ± 0.53	13.89 ± 0.77	20 ± 1.1	27.4 ± 1.5	40.1 ± 2.2	53 ± 2.9	72 ± 4	93.1 ± 5.3
293.15 K	4.22 ± 0.23	5.84 ± 0.32	8.21 ± 0.46	11.73 ± 0.65	16.88 ± 0.93	22.5 ± 1.3	32.3 ± 1.8	42.1 ± 2.3	56.5 ± 3.1	70.8 ± 3.9
298.15 K	3.73 ± 0.21	5.1 ± 0.28	7.11 ± 0.39	10.04 ± 0.56	14.26 ± 0.79	19 ± 1	26.4 ± 1.5	34.1 ± 1.9	44.9 ± 2.5	55.8 ± 3
303.15 K	3.3 ± 0.18	4.49 ± 0.25	6.22 ± 0.34	8.68 ± 0.48	12.18 ± 0.67	16.18 ± 0.89	22 ± 1.2	28 ± 1.5	36.4 ± 2	44.3 ± 2.4
308.15 K	2.93 ± 0.16	4.01 ± 0.22	5.48 ± 0.3	7.57 ± 0.42	10.46 ± 0.58	13.82 ± 0.76	18.7 ± 1	23.4 ± 1.3	30 ± 1.6	36 ± 2
313.15 K	2.62 ± 0.15	3.57 ± 0.2	4.86 ± 0.27	6.66 ± 0.37	9.07 ± 0.5	11.91 ± 0.66	16.06 ± 0.88	19.9 ± 1.1	25.1 ± 1.4	29.7 ± 1.6
318.15 K	2.35 ± 0.13	3.21 ± 0.18	4.34 ± 0.24	5.9 ± 0.33	7.94 ± 0.44	10.35 ± 0.57	13.87 ± 0.76	17.27 ± 0.95	21.3 ± 1.2	24.9 ± 1.4

CCCCCCCC[n+]1ccccc1.O=S(=O)([N-]S(=O)(=O)C(F)(F)F)C(F)(F)F + CCCCOC(C)=O
Conditions	electrical conductivity [S/m]
298.15 K, 100 kPa, x2 = 0.6824	0.371 ± 0.007

CC(=O)[O-].Cn1cc[nH+]c1 + CCCC[N+]1(C)CCCC1.O=S(=O)([N-]S(=O)(=O)C(F)(F)F)C(F)(F)F
298.15 K, 100 kPa
Conditions	viscosity [mPa·s]
x1 = 0.19	52.7 ± 1.1
x1 = 0.5	26.9 ± 0.6
x1 = 1	6.22 ± 0.14
